Key:
[1] = test system: B6 mice subjected to ischemic stroke; experiment: Ischemic stroke in B6 mice supplemented with 20-OH PGE2; type: in vivo, mouse; details: 20-OH PGE2 250 ng/h via osmotic pump, 7 days, vs vehicle
Protocol: B6 mice were divided into two groups: one supplemented with 20-OH PGE2 (250 ng/h in an osmotic pump) and one given vehicle. After one week of treatment, the mice were subjected to ischemic stroke.
Although 20-OH PGE2 elicits beneficial protective effects in brain endothelial cells under OGD/Rep, the precise role of 20-OH PGE2 in ischemic stroke is still to be defined. To determine the effects of 20-OH PGE2 supplementation on stroke damage, B6 mice were treated with 20-OH PGE2 (Cayman) (administered via an osmotic pump (Alzet) at a dose of 250 ng/h) or vehicle for 7 days. The effects of 20-OH PGE2 on infarct size and neurological deficit after ischemic stroke were examined.

subcutaneous MC38 tumors = experiment: Tumor growth in MC38 colon tumor-bearing C57BL/6J mice; type: in vivo, mouse; details: HET0016 5 or 10 mg/kg/day i.p.; rofecoxib 50 mg/l in drinking water; combination compared with rofecoxib alone; FIG. 5
Protocol: 8-week-old male C57BL/6J mice were subcutaneously injected with MC38 cells (1.4×10^6 cells/mouse) to induce colon tumor. […] All treatments were done for 21 days. Rofecoxib (50 mg/l) was suspended in drinking water containing 1% (vol/vol) PEG 400 (Sigma-Aldrich) and 0.5% (wt/vol) 2-hydroxypropyl-β-cyclodextrin (Sigma-Aldrich). The formula and dose of rofecoxib were prepared according to a previous publication (Liu, et al., Proc Natl Acad Sci USA 107: 17017-17022 (2010)). Tumor growth rates were monitored by measuring tumor volume with a sliding caliper on day 9 or day 18 after cell-implantation. The volumes of tumors were calculated from the major dimension (L) and minor dimension (S), using the equation: tumor volume=L×(S)2/2 as described previously (Konson, et al., Cancer Gene Ther 11: 830-840 (2004)).

[2] = test system: 20-HETE production in MC38 cells; experiment: 20-HETE production in cultured MC38 cells (LC/MS/MS); type: cell-based, mouse; details: HET0016 1 μM vs vehicle; FIG. 1C
Protocol: (§1) MC38 cells were maintained in complete medium consisting of DMEM supplemented with 10% heat-inactivated FBS, […] streptomycin, and 100 U/ml penicillin in a humidified incubator at 37° C. with 5% CO2. Sub-confluent cultured cells were harvested by washing T-75 flasks two times with Ca^2+- and Mg^2+-free Earl's balanced salts, followed by 2 min incubation with 0.25% trypsin-EDTA (Life Technologies, Grand Island, N.Y.) at 37° C. A human cerebral microvascular endothelial cell line (HCMECL) was used in the studies (University of Georgia, Athens, Ga.). Primary rat brain microvascular endothelial cells (RBMEC) were prepared as described previously (Prakash, et al., Diabetes 61:97 1533-1542 (2012)). HCMECL and RBMEC were maintained in MCDB-131 complete medium (VEC Technologies, Rensselaer, N.Y.).
(§2) MC38 cells were collected using 0.25% trypsin-EDTA. After centrifugation, a cell pallet was re-suspended in 300 μl of PBS. […] The concentrations of 20-HETE in media and cell lysates were determined by Liquid Chromatography—Tandem Mass Spectrometry (LC/MS/MS) using 15(S)-HETE-d8 as an internal standard as described previously (Chen, et al., Prostaglandins Other Lipid Mediat 104-105:42-48 (2013)). […] The concentrations of PGE2 in media and cell lysates were determined by an ELISA kit (Cayman Chemical, Ann Arbor, Mich.) according to the manufacturer's instructions.

MC38 cells [3] = experiment: MC38 cell growth by counting cell numbers; type: cell-based, mouse; details: single agent 100 nM to 10 μM, 48 h, serum-free medium + EGF 200 ng/ml; FIG. 3A/3B
Protocol: For cell growth experiments, cells were seeded onto 6-well plates at a density of 2.5×10^5 cells/well. […] After 48 h of treatment, cells were collected using 0.25% trypsin-EDTA and counted using a hemocytometer.

plasma eicosanoids = experiment: Plasma 20-HETE and other eicosanoids in MC38 tumor mice (LC/MS/MS); type: in vivo, mouse; details: 3 weeks; for Plasma 20-HETE levels / Plasma levels of EETs/DHETs, 5-HETE, 8-HETE, 11-HETE, 15-HETE: rofecoxib 50 mg/l, HET0016 5 mg/kg/day i.p. given with rofecoxib, FIG. 6A
Protocol: After 3 weeks of different treatments, MC38 tumor mice were anesthetized with 2% isoflurane delivered by an anesthesia apparatus. About 0.6 ml of venous blood was collected from mice using a 1-ml syringe containing sodium citrate. The samples were centrifuged at 2,400×g for 15 min to obtain platelet-free plasma. To stabilize eicosanoids in plasma samples, 10 μl combinations of antioxidants (EDTA (0.2 mg/l), butylated hydroxytoluene (0.2 mg/l), and triphenyphosphine (2 mg/l)) were added to each plasma sample. The plasma samples were stored at −80° C. until LC/MS/MS analysis. Plasma samples were spiked with 10 ng of 15(S)-HETE-d8, applied to preconditioned SEP Pak C18 cartridges (100 mg adsorbent, Waters), and washed with water followed by hexane. Eicosanoids were eluted with 500 μl of ethyl acetate-hexane (3:1). The eluate was dried under nitrogen and reconstituted in methanol: 25 mM aqueous ammonium acetate (7:3). The extracted and reconstituted sample was subjected to HPLC (Shimadzu Prominence XR system) on a Max-RP C18 column (2×150 mm, 3 μu, Phenomenex) isocratically eluted with methanol:13 mM aqueous ammonium acetate (8:2) at a flow rate of 0.4 ml/min. The eluent was monitored for 20-HETE, EETs (5,6-EET, 8,9-EET, 11,12-EET, 14,15-EET), DHETs (5,6-DHET, 8,9-DHET, 11,12-DHET, 14,15-DHET), 5-HETE, 8-HETE, 11-HETE, 15-HETE, PGJ2, PGE2, TXB2, and 15keto-PGE2 by mass spectrometer (QTRAP5500, ABSCIEX) in the negative ion mode using Multiple Reaction Monitoring under optimized conditions. 15(S)-HETE-d8 was used as the internal standard for recovery and quantitation. The concentrations of eicosanoids were determined by comparing the ratio of ion intensity of each eicosanoid versus that of 15(S)-HETE-d8, as described previously (Chen, et al., Prostaglandins Other Lipid Mediat 104-105:42-48 (2013); Maddipati, et al., Prostaglandins Other Lipid Mediat 94:59-72 (2011)).

MC38 cells [4] = experiment: MC38 cell proliferation by BrdU ELISA assay; type: cell-based, mouse; details: 48 h
Protocol: MC38 cells were seeded at a density of 5×10^3 cells/well in 10% FBS/DMEM in 96-well plates. […] BrdU ELISA assay was done using an ELISA kit (CycLex Co., Nagano, Japan). Briefly, 3 h before assay, BrdU (10 μM final concentration) was added to the 96-well plates containing MC38 cells given different incubation conditions. After 3 h of incubation, the culture medium was removed, and fixed with Fixing/Denaturing solution (200 μl/well) at room temperature for 30 min. After removing Fixing/Denaturing solution, plates were incubated with monoclonal anti-BrdU antibody (50 μl/well) at room temperature for 1 h. Plates were washed five times with Wash buffer (200 μl/well), then incubated with the secondary antibody (50 μl/well) at room temperature for 1 h. After removing the secondary antibody and doing a second wash procedure, plates were incubated with Substrate Reagent (50 μl/well) at room temperature for 15 min in the dark. The reaction was then stopped by adding Stop Solution (50 μl/well). The absorbance in each well was measured using a Tecan GENios Plus microplate reader at dual wavelengths of 450/540 nm.

[5] = test system: PGE2 production in MC38 cells; experiment: PGE2 production in MC38 cells (PGE2 ELISA); type: cell-based, mouse; details: dose response; FIG. 2C
Protocol: as §1, §2

[6] = Water intake and body weight of treated mice; type: in vivo, mouse; details: rofecoxib 50 mg/l in drinking water, n=5
Protocol: In a complementary experiment, the water intake and body weight of mice treated with water, vehicle, and rofecoxib (50 mg/l) was determined. Neither vehicle (3.02±0.17 vs. 3.16±0.16 ml/24 h/mouse, n=5) nor rofecoxib (3.07±0.1 vs. 3.16±0.16 ml/24 h/mouse, n=5) treatment affected water intake. Likewise, there was no significant change of body weight among water (24±1.63 g/mouse, n=5), vehicle (23.8±1.1 g/mouse, n=5), and rofecoxib (24.5±1.0 g/mouse, n=5) group.

[7] = test system: MC38 tumor mice subjected to thromboembolic stroke; experiment: Thromboembolic ischemic stroke in MC38 tumor mice: neurovascular injury and functional outcome; type: in vivo, mouse
Text: Age-matched non-tumor mice were usedas control. At the end of the treatment period, mice were subjected to thromboembolic stroke. Under isoflurane anesthesia, the right common carotid artery, the right external carotid artery (ECA), and the right internal carotid artery were exposed through a middle incision on the ventral side of the neck. A PE 10 catheter containing a fibrin-rich clot was gently inserted from the ECA stump into the distal internal carotid artery just proximal to the origin of the middle cerebral artery (MCA). Each clot (˜1 cm), prepared from a donor mouse, was injected with 75 μl of sterile PBS; after 2 min, the catheter was withdrawn as described previously (Hoda, et al., Exp Transl Stroke Med 3:16 (2011)). Occlusion was confirmed by a ≧70% drop in cerebral blood flow as compared to the pre-ischemic value. The success rate of thromboembolic MCA occlusion was 95% based on changes in cerebral blood flow. At day 3 after surgery, mice were first evaluated for functional outcome, then sacrificed for evaluation of neurovascular injury including infarct size and bleeding. Extracted brains were analyzed for infarct size in coronal slices of 2 mm thickness, labeled A-G, front to back. Hemorrhagic transformation (HT), secondary bleeding into the brain after ischemic stroke was evaluated by the presence of visible macroscopic bleeding and measured in a binary fashion: yes or no. Number of animals that had HT was reported per group. 2, 3, 5-Triphenyltetrazolium chloride (TTC), a mitochondria stain, was used to outline the infarct area. The captured images were numerically labeled and analyzed using specialized KS300 software. Infarct size was expressed as a percentage of the contralateral hemisphere. Neurologic deficits in mice given different treatments were assessed at 24 h and 72 h after stroke, using a 5-point scale for scoring: 0, no deficit; 1, forelimb flexion deficit on contralateral side; 2, decreased resistance to lateral push and torso turning to the ipsilateral side when held by tail; 3, significant circling to the affected side and reduced capability to bear weight on the affected side; 4, rarely moved spontaneously and preferred to stay at rest.

Cyp4a = Cyp4a expression in liver and kidney of MC38 tumor mice (Western blot); type: in vivo, mouse; details: 3-week rofecoxib treatment, FIG. 6C

Question: With `O=C(O)CCC/C=C\C[C@H]1C(=O)C[C@@H](O)[C@@H]1/C=C/[C@@H](O)CCCCCO` [20-OH PGE2] as the molecule, how does the “Infarct size after ischemic stroke” value ([1]; FIG. 10A) read?
Answer: reduced

Question: And the “Neurological deficits after ischemic stroke” value ([1]; FIG. 10B)?
Answer: reduced

Question: Which “Tumor size on day 9 post implantation” value (subcutaneous MC38 tumors) does the source give for `CCCCc1ccc(N=CNO)c(C)c1` [HET0016, N-Hydroxy-N′-(4-butyl-2-methylphenyl)formamidine] here?
Answer: did not affect tumor size

Question: What about the “Tumor size on day 18 post-implantation” value (subcutaneous MC38 tumors) of the same molecule?
Answer: dose-dependently reduced tumor size

Question: And the “20-HETE production and secretion in MC38 cell media” value [2]?
Answer: effectively blocked 20-HETE production and secretion

Question: What about the “MC38 cell growth (cell number/well)” value (MC38 cells [3]) of the same molecule?
Answer: inhibited cell growth

Question: And the “Plasma 20-HETE levels” value (plasma eicosanoids)?
Answer: selectively reduced plasma 20-HETE levels

Question: What about the “Plasma levels of EETs/DHETs, 5-HETE, 8-HETE, 11-HETE, 15-HETE” value (plasma eicosanoids) of the same molecule?
Answer: without affecting

Question: What about the “Plasma PGJ2, PGE2, TXB2 and 15 keto-PGE2 levels” value (plasma eicosanoids; HET0016 5 mg/kg/day i.p., FIG. 6B) of the same molecule?
Answer: did not affect

Question: And the “BrdU incorporation into MC38 cells” value (MC38 cells [4]; 100 nM to 10 μM, serum-free medium + EGF 200 ng/ml, FIG. 4A)?
Answer: inhibited the incorporation of BrdU in a concentration dependent manner

Question: With `CS(=O)(=O)c1ccc(C2=C(c3ccccc3)C(=O)OC2)cc1` [rofecoxib] as the molecule, how does the “PGE2 production in MC38 cells” value [5] read?
Answer: dose-dependently inhibited PGE2 production

Question: And the “Tumor size on day 9 post implantation” value (subcutaneous MC38 tumors)?
Answer: significantly reduced tumor size

Question: What about the “Tumor size on day 18 post-implantation” value (subcutaneous MC38 tumors) of the same molecule?
Answer: significantly reduced tumor size

Question: And the “MC38 cell growth (cell number/well)” value (MC38 cells [3])?
Answer: inhibited cell growth

Question: And the “Plasma 20-HETE levels” value (plasma eicosanoids)?
Answer: selectively increased 20-HETE plasma levels

Question: What about the “Plasma levels of EETs/DHETs, 5-HETE, 8-HETE, 11-HETE, 15-HETE” value (plasma eicosanoids) of the same molecule?
Answer: no significant changes

Question: What about the “BrdU incorporation into MC38 cells at 1 μM” value (MC38 cells [4]; 1 μM (combination 1 μM each, compared with rofecoxib alone), FIG. 4B/4C) of the same molecule?
Answer: significantly inhibited BrdU incorporation

Question: And the Body weight [6]?
Answer: 24.5±1.0 g/mouse

Question: And the Water intake ([6]; water group 3.16±0.16)?
Answer: 3.07±0.1 ml/24 h/mouse

Question: What about the “Mortality after ischemic stroke” value ([7]; 3 weeks treatment, rofecoxib 50 mg/l, HET0016 5 mg/kg/day i.p.) of the same molecule?
Answer: ~30%

Question: And the “Animals that developed HT” value ([7]; C57BL/6J, mouse, in vivo, 3 weeks)?
Answer: 4 out of the 5

Question: And the “Functional outcome (neurological deficit score)” value ([7]; mouse, in vivo)?
Answer: neurological deficit scores were higher

Question: What about the Infarct size ([7]; rofecoxib compared to control mice, combination compared to rofecoxib, FIG. 8B) of the same molecule?
Answer: reduced the size of infarcts

Question: And the “cyp4a expression in the liver and kidney” value (Cyp4a)?
Answer: had no effect on cyp4a expression
